Experimental data: PubChem BioAssay (NCI)
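GI50 is the concentration that inhibits growth by half. TGI marks complete inhibition of growth.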

What was measured:
Assay in all cases: DTP human tumour cell line panel, 384-well format
786-0 renal = tested on: 786-0 renal
A498 renal = tested on: A498 renal
A549 NSCLC = tested on: A549 NSCLC
ACHN renal = tested on: ACHN renal
BT-549 breast = tested on: BT-549 breast
CAKI-1 renal = tested on: CAKI-1 renal
CCRF-CEM leukemia = tested on: CCRF-CEM leukemia
DU-145 prostate = tested on: DU-145 prostate
EKVX NSCLC = tested on: EKVX NSCLC
HCC-2998 colon = tested on: HCC-2998 colon
HCT-116 colon = tested on: HCT-116 colon
HOP-92 NSCLC = tested on: HOP-92 NSCLC
HT29 colon = tested on: HT29 colon
IGROV1 ovarian = tested on: IGROV1 ovarian
K-562 leukemia = tested on: K-562 leukemia
KM12 colon = tested on: KM12 colon
LOX IMVI melanoma = tested on: LOX IMVI melanoma
M14 melanoma = tested on: M14 melanoma
MALME-3M melanoma = tested on: MALME-3M melanoma
MCF7 breast = tested on: MCF7 breast
MDA-MB-468 breast = tested on: MDA-MB-468 breast
MOLT-4 leukemia = tested on: MOLT-4 leukemia
NCI-H226 lung = tested on: NCI-H226 lung
NCI-H23 lung = tested on: NCI-H23 lung
NCI-H322M lung = tested on: NCI-H322M lung
NCI-H460 NSCLC = tested on: NCI-H460 NSCLC
NCI-H522 lung = tested on: NCI-H522 lung
OVCAR-4 ovarian = tested on: OVCAR-4 ovarian
OVCAR-8 ovarian = tested on: OVCAR-8 ovarian
PC-3 prostate = tested on: PC-3 prostate
RPMI-8226 leukemia = tested on: RPMI-8226 leukemia
RXF 393 renal = tested on: RXF 393 renal
SF-268 CNS = tested on: SF-268 CNS
SF-295 CNS = tested on: SF-295 CNS
SF-539 CNS = tested on: SF-539 CNS
SK-MEL-2 melanoma = tested on: SK-MEL-2 melanoma
SK-MEL-28 melanoma = tested on: SK-MEL-28 melanoma
SK-MEL-5 melanoma = tested on: SK-MEL-5 melanoma
SK-OV-3 ovarian = tested on: SK-OV-3 ovarian
SN12C renal = tested on: SN12C renal
SNB-19 CNS = tested on: SNB-19 CNS
SNB-75 CNS = tested on: SNB-75 CNS
SW-620 colon = tested on: SW-620 colon
TK-10 renal = tested on: TK-10 renal
U251 glioblastoma = tested on: U251 glioblastoma
UACC-257 melanoma = tested on: UACC-257 melanoma
UACC-62 melanoma = tested on: UACC-62 melanoma

With `COc1ccc2c(Oc3ccc(NC(=O)c4c(C)n(CC(C)(C)O)n(-c5ccccc5)c4=O)nc3)ccnc2c1` the GI50 ([…]-0 renal) was 19.8 µM, the TGI (786-0 renal) was greater than 100 µM and the GI50 (A498 renal) was 4.43 µM. For the same molecule, the TGI (A498 renal) was greater than 100 µM, the GI50 (A549 NSCLC) was 16.8 µM and the TGI (A549 NSCLC) was greater than 100 µM. The GI50 (ACHN renal) was 5.81 µM, the TGI (ACHN renal) was greater than 100 µM and the GI50 (BT-549 breast) was 11.5 µM. For the same molecule, the TGI (BT-549 breast) was 25.7 µM, the GI50 (CAKI-1 renal) was 3.45 µM and the TGI (CAKI-1 renal) was greater than 100 µM. The GI50 (CCRF-CEM leukemia) was 10.3 µM, the TGI (CCRF-CEM leukemia) was 22 µM and the GI50 (DU-145 prostate) was 8.18 µM. The TGI (DU-145 prostate) was greater than 100 µM, the GI50 (EKVX NSCLC) was 37.3 µM and the TGI (EKVX NSCLC) was greater than 100 µM. For the same molecule, the GI50 (HCC-2998 colon) was greater than 100 µM, the TGI (HCC-2998 colon) was greater than 100 µM and the GI50 (HCT-116 colon) was 10.5 µM. The TGI (HCT-116 colon) was 30.2 µM, the GI50 (HOP-92 NSCLC) was 10.4 µM and the TGI (HOP-92 NSCLC) was 41.1 µM. The GI50 (HT29 colon) was 39.9 µM, the TGI (HT29 colon) was greater than 100 µM and the GI50 (IGROV1 ovarian) was 9.46 µM. It also gave a TGI (IGROV1 ovarian) greater than 100 µM, a GI50 (K-562 leukemia) of 1.16 µM and a TGI (K-562 leukemia) of 2.51 µM. The GI50 (KM12 colon) was 0.73 µM, the TGI (KM12 colon) was greater than 100 µM and the GI50 (LOX IMVI melanoma) was 47.2 µM. The TGI (LOX IMVI melanoma) was greater than 100 µM, the GI50 (M14 melanoma) was 6.34 µM and the TGI (M14 melanoma) was 70.2 µM. The GI50 (MALME-3M melanoma) was 5.26 µM, the TGI (MALME-3M melanoma) was 60 µM and the GI50 (MCF7 breast) was 46.4 µM. It also gave a TGI (MCF7 breast) greater than 100 µM, a GI50 (MDA-MB-468 breast) of 22.9 µM and a TGI (MDA-MB-468 breast) greater than 100 µM. For the same molecule, the GI50 (MOLT-4 leukemia) was 3.58 µM, the TGI (MOLT-4 leukemia) was 12.4 µM and the GI50 (NCI-H226 lung) was 22.6 µM. The TGI (NCI-H226 lung) was greater than 100 µM, the GI50 (NCI-H23 lung) was 10.8 µM and the TGI (NCI-H23 lung) was greater than 100 µM. For the same molecule, the GI50 (NCI-H322M lung) was 10.3 µM, the TGI (NCI-H322M lung) was greater than 100 µM and the GI50 (NCI-H460 NSCLC) was 14.3 µM. For the same molecule, the TGI (NCI-H460 NSCLC) was greater than 100 µM, the GI50 (NCI-H522 lung) was 14.4 µM and the TGI (NCI-H522 lung) was 54.1 µM. The GI50 (OVCAR-4 ovarian) was 15.2 µM, the TGI (OVCAR-4 ovarian) was greater than 100 µM and the GI50 (OVCAR-8 ovarian) was 13.8 µM. The TGI (OVCAR-8 ovarian) was greater than 100 µM, the GI50 (PC-3 prostate) was 18.5 µM and the TGI (PC-3 prostate) was greater than 100 µM. The GI50 (RPMI-8226 leukemia) was 6.85 µM, the TGI (RPMI-8226 leukemia) was 19.4 µM and the GI50 (RXF 393 renal) was 2.42 µM. It also gave a TGI (RXF 393 renal) of 9.27 µM, a GI50 (SF-268 CNS) of 19.9 µM and a TGI (SF-268 CNS) greater than 100 µM. It also gave a GI50 (SF-295 CNS) of 13.9 µM, a TGI (SF-295 CNS) greater than 100 µM and a GI50 (SF-539 CNS) of 10.1 µM. The TGI (SF-539 CNS) was 64 µM, the GI50 (SK-MEL-2 melanoma) was 13 µM and the TGI (SK-MEL-2 melanoma) was 33.4 µM. The GI50 (SK-MEL-28 melanoma) was 25.2 µM, the TGI (SK-MEL-28 melanoma) was 84.8 µM and the GI50 (SK-MEL-5 melanoma) was 13.8 µM. For the same molecule, the TGI (SK-MEL-5 melanoma) was greater than 100 µM, the GI50 (SK-OV-3 ovarian) was 4.04 µM and the TGI (SK-OV-3 ovarian) was greater than 100 µM. The GI50 (SN12C renal) was 2.24 µM, the TGI (SN12C renal) was 86.8 µM and the GI50 (SNB-19 CNS) was 34.1 µM. It also gave a TGI (SNB-19 CNS) greater than 100 µM, a GI50 (SNB-75 CNS) of 7.61 µM and a TGI (SNB-75 CNS) of 53.1 µM. It also gave a GI50 (SW-620 colon) of 56.2 µM, a TGI (SW-620 colon) greater than 100 µM and a GI50 (TK-10 renal) of 10.8 µM. The TGI (TK-10 renal) was 100 µM, the GI50 (U251 glioblastoma) was 24.7 µM and the TGI (U251 glioblastoma) was greater than 100 µM. It also gave a GI50 (UACC-257 melanoma) of 25.1 µM, a TGI (UACC-257 melanoma) greater than 100 µM and a GI50 (UACC-62 melanoma) of 4.99 µM. It also gave a TGI (UACC-62 melanoma) of 24 µM.
